Source: US9809587B2, “Pesticidally active heterocyclic derivatives with sulphur containing substituents” (Syngenta Participations AG, priority 2014, dated 2017)

Experiments:
Format in all cases: in vivo
[1] = tested on: Bemisia tabaci (Cotton White Fly); assay: Bemisia tabaci (cotton white fly), sprayed cotton leaf discs; conditions: foliar, 144 h, application rate of 200 ppm, adult white flies on cotton leaf discs, 6 days after incubation
Protocol: Example B1: Bemisia tabaci (Cotton White Fly)
Cotton leaf discs were placed on agar in 24-well microtiter plates and sprayed with aqueous test solutions prepared from 10′000 ppm DMSO stock solutions. After drying the leaf discs were infested with adult white flies. The samples were checked for mortality 6 days after incubation.

[2] = tested on: Diabrotica balteata (Corn Root Worm); assay: Diabrotica balteata (corn root worm), sprayed maize sprouts; conditions: 96 h, application rate of 200 ppm, L2 larvae on maize sprouts, 4 days after infestation
Protocol: Example B2: Diabrotica balteata (Corn Root Worm)
Maize sprouts, placed on an agar layer in 24-well microtiter plates were treated with aqueous test solutions prepared from 10′000 ppm DMSO stock solutions by spraying. After drying, the plates were infested with L2 larvae (6 to 10 per well). The samples were assessed for mortality and growth inhibition in comparison to untreated samples 4 days after infestation.

[3] = tested on: Euschistus heros (Neotropical Brown Stink Bug); assay: Euschistus heros (neotropical brown stink bug), sprayed soybean leaf; conditions: 120 h, application rate of 200 ppm, N-2 nymphs on soybean leaf, 5 days after infestation
Protocol: Example B3: Euschistus heros (Neotropical Brown Stink Bug)
Soybean leaf on agar in 24-well microtiter plates were sprayed with aqueous test solutions prepared from 10′000 ppm DMSO stock solutions. After drying the leaf were infested with N-2 nymphs. The samples were assessed for mortality in comparison to untreated samples 5 days after infestation.

[4] = tested on: Myzus persicae (Green Peach Aphid); assay: Myzus persicae (green peach aphid), sprayed sunflower leaf discs; conditions: foliar, 144 h, application rate of 200 ppm, mixed ages on sunflower leaf discs, 6 days after infestation
Protocol: Example B4: Myzus persicae (Green Peach Aphid)
Sunflower leaf discs were placed on agar in a 24-well microtiter plate and sprayed with aqueous test solutions prepared from 10′000 ppm DMSO stock solutions. After drying, the leaf discs were infested with an aphid population of mixed ages. The samples were assessed for mortality 6 days after infestation.

[5] = tested on: Plutella xylostella (Diamond Back Moth); assay: Plutella xylostella (diamond back moth), treated artificial diet; conditions: 120 h, application rate of 200 ppm, L2 larvae on artificial diet, 5 days after infestation, read-out: effect in at least one of the two categories (mortality or growth inhibition)
Protocol: Example B6: Plutella xylostella (Diamond Back Moth)
24-well microtiter plates with artificial diet were treated with aqueous test solutions prepared from 10′000 ppm DMSO stock solutions by pipetting. After drying, the plates were infested with L2 larvae (10 to 15 per well). The samples were assessed for mortality and growth inhibition in comparison to untreated samples 5 days after infestation.
The following compounds gave an effect of at least 80% in at least one of the two categories (mortality or growth inhibition) at an application rate of 200 ppm: […]

[6] = tested on: Spodoptera littoralis (Egyqptian Cotton Leaf Worm); assay: Spodoptera littoralis (Egyptian cotton leaf worm), sprayed cotton leaf discs; conditions: foliar, 72 h, application rate of 200 ppm, L1 larvae on cotton leaf discs, 3 days after infestation
Protocol: Example B7: Spodoptera littoralis (Egyqptian Cotton Leaf Worm)
Cotton leaf discs were placed on agar in 24-well microtiter plates and sprayed with aqueous test solutions prepared from 10′000 ppm DMSO stock solutions. After drying the leaf discs were infested with five L1 larvae. The samples were assessed for mortality, anti-feedant effect, and growth inhibition in comparison to untreated samples 3 days after infestation. Control of Spodoptera littoralis by a test sample is when at least one of mortality, anti-feedant effect, and growth inhibition is higher than the untreated sample.

[7] = tested on: Spodoptera littoralis (Egyqptian Cotton Leaf Worm); assay: Spodoptera littoralis (Egyptian cotton leaf worm), compound in agar taken up by lettuce roots; conditions: 144 h, test rate of 12.5 ppm, uptake by lettuce roots from agar, 6 days after infestation, read-out: effect in at least one of the three categories (mortality, anti-feedancy, or growth inhibition)
Source text: Example B8: Spodoptera littoralis (Egyqptian Cotton Leaf Worm)
Test compounds were applied by pipette from 10′000 ppm DMSO stock solutions into 24-well plates and mixed with agar. Lettuce seeds were placed on the agar and the multi well plate was closed by another plate which contains also agar. After 7 days the roots have absorbed the compound and the lettuce has grown into the lid plate. The lettuce leafs were now cut off into the lid plate. Spodoptera eggs were pipetted through a plastic stencil on a humid gel blotting paper and the plate closed with it. The samples were assessed for mortality, anti-feedant effect and growth inhibition in comparison to untreated samples 6 days after infestation.
The following compounds gave an effect of at least 80% in at least one of the three categories (mortality, anti-feedancy, or growth inhibition) at a test rate of 12.5 ppm: […]

[8] = tested on: Myzus persicae (Green Peach Aphid); assay: Myzus persicae (green peach aphid), roots of pea seedlings in test solution; conditions: 144 h, test rate of 24 ppm, roots of infested pea seedlings in test solution, 6 days
Protocol: Example B5: Myzus persicae (Green Peach Aphid)
Roots of pea seedlings infested with an aphid population of mixed ages were placed directly in the aqueous test solutions prepared from 10′000 DMSO stock solutions. The samples were assessed for mortality 6 days after placing seedlings in test solutions.

CCS(=O)(=O)c1cc(-c2cnc(Cl)nc2)cnc1-c1nc2cc(C(F)(F)F)ncc2n1C [Compound P10]
≥ 80%: mortality at 200 ppm [1]

CCS(=O)(=O)c1cc(-c2ncc(Cl)cc2Cl)cnc1-c1nc2cc(C(F)(F)F)ncc2n1C [Compound P44]
≥ 80%: mortality at 200 ppm [2] | mortality at 200 ppm [3] | mortality at 200 ppm [4] | percent effect (mortality or growth inhibition) at 200 ppm [5] | percent control (mortality, anti-feedant effect or growth inhibition) at 200 ppm [6] | percent control (mortality, anti-feedancy or growth inhibition) at 12.5 ppm [7]

CCS(=O)(=O)c1cc(-c2cncc(C)c2)cnc1-c1nc2cc(C(F)(F)F)ncc2n1C [Compound P45]
≥ 80%: mortality at 200 ppm [1] | mortality at 200 ppm [2] | mortality at 200 ppm [3] | mortality at 200 ppm [4] | percent effect (mortality or growth inhibition) at 200 ppm [5] | percent control (mortality, anti-feedant effect or growth inhibition) at 200 ppm [6]

CCS(=O)(=O)c1cc(-c2ccnc(C(F)(F)F)c2)cnc1-c1nc2cc(C(F)(F)F)ncc2n1C [Compound P46]
≥ 80%: mortality at 200 ppm [1] | mortality at 200 ppm [2] | mortality at 200 ppm [3] | mortality at 200 ppm [4] | percent effect (mortality or growth inhibition) at 200 ppm [5] | percent control (mortality, anti-feedant effect or growth inhibition) at 200 ppm [6] | percent control (mortality, anti-feedancy or growth inhibition) at 12.5 ppm [7]

CCS(=O)(=O)c1cc(-c2ncccc2NC(=O)C(F)(F)F)cnc1-c1nc2cc(C(F)(F)F)ncc2n1C [Compound P49]
≥ 80%: mortality at 200 ppm [3] | mortality at 200 ppm [4] | mortality at 24 ppm [8]

CCS(=O)(=O)c1cc(-c2ncccc2C)cnc1-c1nc2cc(C(F)(F)F)ncc2n1C [Compound P50]
≥ 80%: mortality at 200 ppm [2] | mortality at 200 ppm [3] | mortality at 200 ppm [4] | percent effect (mortality or growth inhibition) at 200 ppm [5] | percent control (mortality, anti-feedant effect or growth inhibition) at 200 ppm [6] | percent control (mortality, anti-feedancy or growth inhibition) at 12.5 ppm [7]

CCS(=O)(=O)c1cc(-c2ncccc2C(F)(F)F)cnc1-c1nc2cc(C(F)(F)F)ncc2n1C [Compound P52]
≥ 80%: mortality at 200 ppm [2] | mortality at 200 ppm [3] | mortality at 200 ppm [4] | percent effect (mortality or growth inhibition) at 200 ppm [5] | percent control (mortality, anti-feedant effect or growth inhibition) at 200 ppm [6] | percent control (mortality, anti-feedancy or growth inhibition) at 12.5 ppm [7]

CCS(=O)(=O)c1cc(-c2ncc(C(F)(F)F)cc2F)cnc1-c1nc2cc(C(F)(F)F)ncc2n1C [Compound P54]
≥ 80%: mortality at 200 ppm [2] | mortality at 200 ppm [3] | mortality at 200 ppm [4] | percent effect (mortality or growth inhibition) at 200 ppm [5] | percent control (mortality, anti-feedant effect or growth inhibition) at 200 ppm [6] | percent control (mortality, anti-feedancy or growth inhibition) at 12.5 ppm [7]

CCS(=O)(=O)c1cc(-c2cc(C)ccn2)cnc1-c1nc2cc(C(F)(F)F)ncc2n1C [Compound P57]
≥ 80%: mortality at 200 ppm [3] | mortality at 200 ppm [4] | percent effect (mortality or growth inhibition) at 200 ppm [5] | percent control (mortality, anti-feedant effect or growth inhibition) at 200 ppm [6] | percent control (mortality, anti-feedancy or growth inhibition) at 12.5 ppm [7]

CCS(=O)(=O)c1cc(-c2cccc(Cl)n2)cnc1-c1nc2cc(C(F)(F)F)ncc2n1C [Compound P59]
≥ 80%: mortality at 200 ppm [1] | mortality at 200 ppm [2] | mortality at 200 ppm [3] | mortality at 200 ppm [4] | percent effect (mortality or growth inhibition) at 200 ppm [5] | percent control (mortality, anti-feedant effect or growth inhibition) at 200 ppm [6] | percent control (mortality, anti-feedancy or growth inhibition) at 12.5 ppm [7]

CCS(=O)(=O)c1cc(-c2ccc(C#N)nc2)cnc1-c1nc2cc(C(F)(F)F)ncc2n1C [Compound P65]
≥ 80%: mortality at 200 ppm [2] | mortality at 200 ppm [3] | mortality at 200 ppm [4] | percent effect (mortality or growth inhibition) at 200 ppm [5] | percent control (mortality, anti-feedant effect or growth inhibition) at 200 ppm [6]

CCS(=O)(=O)c1cc(-c2cncc(C(F)(F)F)c2)cnc1-c1nc2cc(C(F)(F)F)ncc2n1C [Compound P66]
≥ 80%: mortality at 200 ppm [1] | mortality at 200 ppm [2] | mortality at 200 ppm [3] | mortality at 200 ppm [4] | percent effect (mortality or growth inhibition) at 200 ppm [5] | percent control (mortality, anti-feedant effect or growth inhibition) at 200 ppm [6]

CCS(=O)(=O)c1cc(-c2cccc3c2OC(F)(F)O3)cnc1-c1nc2cc(C(F)(F)F)ncc2n1C [Compound P72]
≥ 80%: mortality at 200 ppm [2] | mortality at 200 ppm [3] | mortality at 200 ppm [4] | percent effect (mortality or growth inhibition) at 200 ppm [5] | percent control (mortality, anti-feedant effect or growth inhibition) at 200 ppm [6] | percent control (mortality, anti-feedancy or growth inhibition) at 12.5 ppm [7]

CCS(=O)(=O)c1cc(-c2ccnc(Cl)c2)cnc1-c1nc2cc(C(F)(F)F)ncc2n1C [Compound P77]
≥ 80%: mortality at 200 ppm [1] | mortality at 200 ppm [2] | mortality at 200 ppm [3] | mortality at 200 ppm [4] | percent effect (mortality or growth inhibition) at 200 ppm [5] | percent control (mortality, anti-feedant effect or growth inhibition) at 200 ppm [6] | percent control (mortality, anti-feedancy or growth inhibition) at 12.5 ppm [7]

CCS(=O)(=O)c1cc(-c2cccnc2)cnc1-c1nc2cc(C(F)(F)F)ncc2n1C [Compound P80]
≥ 80%: mortality at 200 ppm [1] | mortality at 200 ppm [4] | percent effect (mortality or growth inhibition) at 200 ppm [5] | percent control (mortality, anti-feedant effect or growth inhibition) at 200 ppm [6]

CCS(=O)(=O)c1cc(-c2ccncc2)cnc1-c1nc2cc(C(F)(F)F)ncc2n1C [Compound P81]
≥ 80%: mortality at 200 ppm [1] | mortality at 200 ppm [3] | mortality at 200 ppm [4] | percent effect (mortality or growth inhibition) at 200 ppm [5]

CCS(=O)(=O)c1cc(-c2ccsc2)cnc1-c1nc2cc(C(F)(F)F)ncc2n1C [Compound P82]
≥ 80%: mortality at 200 ppm [2] | mortality at 200 ppm [4] | percent effect (mortality or growth inhibition) at 200 ppm [5] | percent control (mortality, anti-feedant effect or growth inhibition) at 200 ppm [6] | percent control (mortality, anti-feedancy or growth inhibition) at 12.5 ppm [7]

CCS(=O)(=O)c1cc(-n2cnc(C(F)(F)F)c2)cnc1-c1nc2cc(C(F)(F)F)ncc2n1C [Compound P87]
≥ 80%: mortality at 200 ppm [2] | mortality at 200 ppm [4] | mortality at 24 ppm [8]

CCS(=O)(=O)c1cc(-c2cccc(OC)n2)cnc1-c1nc2cc(C(F)(F)F)ncc2n1C [Compound P95]
≥ 80%: mortality at 200 ppm [2] | mortality at 200 ppm [3] | mortality at 200 ppm [4] | percent effect (mortality or growth inhibition) at 200 ppm [5] | percent control (mortality, anti-feedant effect or growth inhibition) at 200 ppm [6]

CCS(=O)(=O)c1cc(-n2ccc(C#N)n2)cnc1-c1nc2cc(C(F)(F)F)ncc2n1C [Compound P98]
≥ 80%: mortality at 200 ppm [2] | mortality at 200 ppm [3] | mortality at 200 ppm [4] | percent effect (mortality or growth inhibition) at 200 ppm [5] | percent control (mortality, anti-feedant effect or growth inhibition) at 200 ppm [6]

CCS(=O)(=O)c1cc(-c2nccc(C)n2)cnc1-c1nc2cc(C(F)(F)F)ncc2n1C [Compound P103]
≥ 80%: mortality at 200 ppm [1] | mortality at 200 ppm [2] | mortality at 200 ppm [3] | mortality at 200 ppm [4] | percent effect (mortality or growth inhibition) at 200 ppm [5] | percent control (mortality, anti-feedant effect or growth inhibition) at 200 ppm [6] | percent control (mortality, anti-feedancy or growth inhibition) at 12.5 ppm [7]

CCS(=O)(=O)c1cc(-c2ccnc(Cl)n2)cnc1-c1nc2cc(C(F)(F)F)ncc2n1C [Compound P105]
≥ 80%: mortality at 200 ppm [2] | mortality at 200 ppm [4] | percent effect (mortality or growth inhibition) at 200 ppm [5] | percent control (mortality, anti-feedant effect or growth inhibition) at 200 ppm [6] | percent control (mortality, anti-feedancy or growth inhibition) at 12.5 ppm [7]
